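All cell lines were grown in 96-well plates and treated with compound for 48 hours. GI50 is the concentration that inhibits growth by half. TGI: concentration producing complete growth inhibition.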
Columns and labels:
Assay in all cases: NCI-60 cell line screen, 48 h
HL-60(TB) leukemia = test system: HL-60(TB) leukemia
EKVX NSCLC = test system: EKVX NSCLC
HOP-92 NSCLC = test system: HOP-92 NSCLC
ACHN renal = test system: ACHN renal
T-47D breast = test system: T-47D breast
RPMI-8226 leukemia = test system: RPMI-8226 leukemia
NCI-H460 lung = test system: NCI-H460 lung
OVCAR-8 ovarian = test system: OVCAR-8 ovarian
OVCAR-5 ovarian = test system: OVCAR-5 ovarian
UACC-62 melanoma = test system: UACC-62 melanoma
KM12 colon = test system: KM12 colon
HCC-2998 colon = test system: HCC-2998 colon
A498 renal = test system: A498 renal
M14 melanoma = test system: M14 melanoma
SN12C renal = test system: SN12C renal
HT29 colon = test system: HT29 colon
A549 NSCLC = test system: A549 NSCLC
MOLT-4 leukemia = test system: MOLT-4 leukemia
HCT-15 colon = test system: HCT-15 colon
UO-31 renal = test system: UO-31 renal
TK-10 renal = test system: TK-10 renal
MDA-MB-435 = test system: MDA-MB-435
MDA-MB-231 breast = test system: MDA-MB-231 breast
IGROV1 ovarian = test system: IGROV1 ovarian
K-562 leukemia = test system: K-562 leukemia
SF-295 CNS = test system: SF-295 CNS
SNB-19 CNS = test system: SNB-19 CNS
PC-3 prostate = test system: PC-3 prostate
SW-620 colon = test system: SW-620 colon
CCRF-CEM leukemia = test system: CCRF-CEM leukemia
786-0 renal = test system: 786-0 renal
MALME-3M melanoma = test system: MALME-3M melanoma
LOX IMVI melanoma = test system: LOX IMVI melanoma
COLO 205 colon = test system: COLO 205 colon
SF-268 CNS = test system: SF-268 CNS
SF-539 CNS = test system: SF-539 CNS
SK-OV-3 ovarian = test system: SK-OV-3 ovarian
BT-549 breast = test system: BT-549 breast
NCI-H23 lung = test system: NCI-H23 lung
SNB-75 CNS = test system: SNB-75 CNS
SK-MEL-28 melanoma = test system: SK-MEL-28 melanoma
NCI-H226 lung = test system: NCI-H226 lung
RXF 393 renal = test system: RXF 393 renal
NCI/ADR-RES ovarian = test system: NCI/ADR-RES ovarian
HOP-62 NSCLC = test system: HOP-62 NSCLC
UACC-257 melanoma = test system: UACC-257 melanoma
SK-MEL-5 melanoma = test system: SK-MEL-5 melanoma
OVCAR-3 ovarian = test system: OVCAR-3 ovarian
SR leukemia = test system: SR leukemia
CAKI-1 renal = test system: CAKI-1 renal
HS 578T breast = test system: HS 578T breast
DU-145 prostate = test system: DU-145 prostate
U251 CNS = test system: U251 CNS
MCF7 breast = test system: MCF7 breast
OVCAR-4 ovarian = test system: OVCAR-4 ovarian
SK-MEL-2 melanoma = test system: SK-MEL-2 melanoma
HCT-116 colon = test system: HCT-116 colon
NCI-H522 lung = test system: NCI-H522 lung

CN(C)CC1CCCCCC(CN(C)C)C1=O (stereo unspecified)
GI50 (HL-60(TB) leukemia): 2.24 µM | TGI (HL-60(TB) leukemia): 8.57 µM | GI50 (EKVX NSCLC): 12.5 µM | TGI (EKVX NSCLC): 37.3 µM | GI50 (HOP-92 NSCLC): 2.69 µM | TGI (HOP-92 NSCLC): 8.11 µM | GI50 (ACHN renal): 1.07 µM | TGI (ACHN renal): 2.64 µM | GI50 (T-47D breast): 2.12 µM | TGI (T-47D breast): 12.5 µM | GI50 (RPMI-8226 leukemia): 3.15 µM | TGI (RPMI-8226 leukemia): 13.9 µM | GI50 (NCI-H460 lung): 18 µM | TGI (NCI-H460 lung): 36.8 µM | GI50 (OVCAR-8 ovarian): 2.61 µM | TGI (OVCAR-8 ovarian): 8.54 µM | GI50 (OVCAR-5 ovarian): 8.29 µM | TGI (OVCAR-5 ovarian): 22 µM | GI50 (UACC-62 melanoma): 8.12 µM | TGI (UACC-62 melanoma): 22.9 µM | GI50 (KM12 colon): 15.9 µM | TGI (KM12 colon): 37.1 µM | GI50 (HCC-2998 colon): 17.1 µM | TGI (HCC-2998 colon): 33.3 µM | GI50 (A498 renal): 15.1 µM | TGI (A498 renal): 29.6 µM | GI50 (M14 melanoma): 1.19 µM | TGI (M14 melanoma): 11.9 µM | GI50 (SN12C renal): 7.9 µM | TGI (SN12C renal): 22.8 µM | GI50 (HT29 colon): 1.35 µM | TGI (HT29 colon): 2.78 µM | GI50 (A549 NSCLC): 14.7 µM | TGI (A549 NSCLC): 30.7 µM | GI50 (MOLT-4 leukemia): 2 µM | TGI (MOLT-4 leukemia): 5.51 µM | GI50 (HCT-15 colon): 1.24 µM | TGI (HCT-15 colon): 4.26 µM | GI50 (UO-31 renal): 1.77 µM | TGI (UO-31 renal): 4.5 µM | GI50 (TK-10 renal): 0.852 µM | TGI (TK-10 renal): 2.13 µM | GI50 (MDA-MB-435): 2.93 µM | TGI (MDA-MB-435): 13.2 µM | GI50 (MDA-MB-231 breast): 8.68 µM | TGI (MDA-MB-231 breast): 23.8 µM | GI50 (IGROV1 ovarian): 15.1 µM | TGI (IGROV1 ovarian): 36.3 µM | GI50 (K-562 leukemia): 1.44 µM | TGI (K-562 leukemia): 7.07 µM | GI50 (SF-295 CNS): 19.7 µM | TGI (SF-295 CNS): 47.2 µM | GI50 (SNB-19 CNS): 41.7 µM | TGI (SNB-19 CNS): > 100 µM | GI50 (PC-3 prostate): 8.71 µM | TGI (PC-3 prostate): 24.2 µM | GI50 (SW-620 colon): 1.13 µM | TGI (SW-620 colon): 2.72 µM | GI50 (CCRF-CEM leukemia): 1.38 µM | TGI (CCRF-CEM leukemia): 3.87 µM | GI50 (786-0 renal): 12.8 µM | TGI (786-0 renal): 33.2 µM | GI50 (MALME-3M melanoma): 2.19 µM | TGI (MALME-3M melanoma): 5.01 µM | GI50 (LOX IMVI melanoma): 7.68 µM | TGI (LOX IMVI melanoma): 25 µM | GI50 (COLO 205 colon): 1.2 µM | TGI (COLO 205 colon): 2.68 µM | GI50 (SF-268 CNS): 7.72 µM | TGI (SF-268 CNS): 23.4 µM | GI50 (SF-539 CNS): 4.16 µM | TGI (SF-539 CNS): 15.7 µM | GI50 (SK-OV-3 ovarian): 27.9 µM | TGI (SK-OV-3 ovarian): > 93.6 µM | GI50 (BT-549 breast): 3.46 µM | TGI (BT-549 breast): 15.9 µM | GI50 (NCI-H23 lung): 8.94 µM | TGI (NCI-H23 lung): 27 µM | GI50 (SNB-75 CNS): 12.2 µM | TGI (SNB-75 CNS): 27.5 µM | GI50 (SK-MEL-28 melanoma): 3.65 µM | TGI (SK-MEL-28 melanoma): 10.5 µM | GI50 (NCI-H226 lung): 9.98 µM | TGI (NCI-H226 lung): 33.3 µM | GI50 (RXF 393 renal): 1.58 µM | TGI (RXF 393 renal): 3.35 µM | GI50 (NCI/ADR-RES ovarian): 3.39 µM | TGI (NCI/ADR-RES ovarian): 14.3 µM | GI50 (HOP-62 NSCLC): 13 µM | TGI (HOP-62 NSCLC): 27.3 µM | GI50 (UACC-257 melanoma): 1.77 µM | TGI (UACC-257 melanoma): 4.6 µM | GI50 (SK-MEL-5 melanoma): 12.2 µM | TGI (SK-MEL-5 melanoma): 25.1 µM | GI50 (OVCAR-3 ovarian): 1.48 µM | TGI (OVCAR-3 ovarian): 5.05 µM | GI50 (SR leukemia): 2.1 µM | TGI (SR leukemia): 7.14 µM | GI50 (CAKI-1 renal): 1.49 µM | TGI (CAKI-1 renal): 3.12 µM | GI50 (HS 578T breast): 21 µM | TGI (HS 578T breast): > 64.3 µM | GI50 (DU-145 prostate): 3.19 µM | TGI (DU-145 prostate): 12.4 µM | GI50 (U251 CNS): 11.1 µM | TGI (U251 CNS): 25.6 µM | GI50 (MCF7 breast): 2.85 µM | TGI (MCF7 breast): 15.3 µM | GI50 (OVCAR-4 ovarian): 3.4 µM | TGI (OVCAR-4 ovarian): 21.7 µM | GI50 (SK-MEL-2 melanoma): 3.82 µM | TGI (SK-MEL-2 melanoma): 13.4 µM | GI50 (HCT-116 colon): 1.07 µM | TGI (HCT-116 colon): 3.91 µM | GI50 (NCI-H522 lung): 0.145 µM | TGI (NCI-H522 lung): 0.392 µM
